The experiment addresses Human DGAT2 (Homo sapiens (Human), UniProt Q96PD7). The experiment in a line: DGAT2 Enzymatic Activity Assay (triolein formation, LC/MS/MS). Type of experiment: biochemical. Conditions: hDGAT2 Sf-9 membrane prep; 25 μM diolein, 10 μM oleoyl-CoA; room temperature. In short, it runs like this:
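Membranes from Sf-9 cells infected with untagged hDGAT2 baculovirus, 10 ng/μL, at room temperature in 100 mM Tris.Cl pH 7.0, 20 mM MgCl2, 5% ethanol with 25 μM diolein and 10 μM oleoyl-CoA. Triolein quantified by LC/MS/MS against spiked internal standard; IC50 from 4-parameter sigmoidal fit.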

The structures appear in SMILES notation.

Results on 32 compounds are retold here after US11104690B2, “Indazole derivatives useful as inhibitors of diacylglyceride O-acyltransferase 2” (Merck Sharp & Dohme Corp., priority 2016, dated 2021).

Chain of Human DGAT2 (Q96PD7 whole entry): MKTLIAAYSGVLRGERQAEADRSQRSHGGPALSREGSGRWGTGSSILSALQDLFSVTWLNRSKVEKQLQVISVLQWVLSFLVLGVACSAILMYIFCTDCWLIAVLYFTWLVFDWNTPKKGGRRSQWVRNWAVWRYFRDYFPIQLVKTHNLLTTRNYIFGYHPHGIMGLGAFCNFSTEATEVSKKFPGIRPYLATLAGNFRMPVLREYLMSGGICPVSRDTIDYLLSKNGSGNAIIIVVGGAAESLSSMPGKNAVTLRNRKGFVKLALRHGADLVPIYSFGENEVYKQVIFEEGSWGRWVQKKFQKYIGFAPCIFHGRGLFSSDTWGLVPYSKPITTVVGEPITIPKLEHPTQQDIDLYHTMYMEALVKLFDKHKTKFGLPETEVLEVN

A word on the IC50: it is the midpoint of a concentration-inhibition curve. High values mean a need for much substance, low ones inhibition by little substance. Turning to `O=C(NCC1(O)CCCCC1)c1ccc2c(-c3ccccc3Cl)nn(-c3ccc(F)cc3)c2c1` [Example 44, 3-(2-chlorophenyl)-1-(4-fluorophenyl)-N-[(1-hydroxycyclohexyl)methyl]-1H-indazole-6-carboxamide], the concentration for half-maximal inhibition (IC50) is 176 nM. This lies in the sub-micromolar range.

`COCCNC(=O)c1ccc2c(-c3ccccc3Cl)nn(-c3ccc(F)cc3)c2c1` [Example 45, 3-(2-chlorophenyl)-1-(4-fluorophenyl)-N-(2-methoxyethyl)-1H-indazole-6-carboxamide] yielded an IC50 of 424 nM. Compared with the last compound, the IC50 is about 2.4-fold higher. Turning to `CC(CO)(CO)NC(=O)c1ccc2c(-c3ccccc3Cl)nn(-c3ccc(F)cc3)c2c1` [Example 46, 3-(2-chlorophenyl)-1-(4-fluorophenyl)-N-[2-hydroxy-1-(hydroxymethyl)-1-methylethyl]-1H-indazole-6-carboxamide], it took 49 nM to reach half-maximal inhibition (IC50). Against the preceding compound, the IC50 is about 8.7-fold lower.

Take `O=C(NC1(CO)CCOCC1)c1ccc2c(-c3ccccc3Cl)nn(-c3ccc(F)cc3)c2c1` [Example 47, 3-(2-chlorophenyl)-1-(4-fluorophenyl)-N-[4-(hydroxymethyl)tetrahydro-2H-pyran-4-yl]-1H-indazole-6-carboxamide]: inhibition was half-maximal at 47 nM (IC50). In turn, `O=C(NCc1cnc(C(F)(F)F)nc1)c1ccc2c(-c3ccccc3Cl)nn(-c3ccc(F)cc3)c2c1` [Example 49, 3-(2-chlorophenyl)-1-(4-fluorophenyl)-N-{[2-(trifluoromethyl)pyrimidin-5-yl]methyl}-1H-indazole-6-carboxamide] had an IC50 of 79 nM. The same measure for `C[C@H](NC(=O)c1ccc2c(-c3ccccc3Cl)nn(-c3ccc(F)cc3)c2c1)c1cnc(C(F)(F)F)nc1` [Example 50, 3-(2-chlorophenyl)-1-(4-fluorophenyl)-N-{(1S)-1-[2-(trifluoromethyl)pyrimidin-5-yl]ethyl}-1H-indazole-6-carboxamide]: 34 nM; for `C[C@H](CS(N)(=O)=O)NC(=O)c1ccc2c(-c3ccccc3Cl)nn(-c3ccc(F)cc3)c2c1` [Example 51, 3-(2-chlorophenyl)-1-(4-fluorophenyl)-N-[(1R)-1-methyl-2-sulfamoylethyl]-1H-indazole-6-carboxamide]: 184 nM; for `O=C(NCCS(=O)(=O)NC1CCCCC1)c1ccc2c(-c3ccccc3Cl)nn(-c3ccc(F)cc3)c2c1` [Example 53, 3-(2-chlorophenyl)-N-[2-(cyclohexylsulfamoyl)ethyl]-1-(4-fluorophenyl)-1H-indazole-6-carboxamide]: 32 nM. The result for `O=C(NCCS(=O)(=O)NCc1ccccc1)c1ccc2c(-c3ccccc3Cl)nn(-c3ccc(F)cc3)c2c1` [Example 54, N-[2-(benzylsulfamoyl)ethyl]-3-(2-chlorophenyl)-1-(4-fluorophenyl)-1H-indazole-6-carboxamide] reads 121 nM; that for `O=C(NCCS(=O)(=O)Nc1ccccn1)c1ccc2c(-c3ccccc3Cl)nn(-c3ccc(F)cc3)c2c1` [Example 55, 3-(2-chlorophenyl)-1-(4-fluorophenyl)-N-[2-(pyridin-2-ylsulfamoyl)ethyl]-1H-indazole-6-carboxamide], 383 nM. The compound `O=C(NCCS(=O)(=O)Nc1ccccc1)c1ccc2c(-c3ccccc3Cl)nn(-c3ccc(F)cc3)c2c1` [Example 56, 3-(2-chlorophenyl)-1-(4-fluorophenyl)-N-[2-(phenylsulfamoyl)ethyl]-1H-indazole-6-carboxamide] returned a half-inhibitory concentration (IC50) of 22 nM. The same measure for `O=C(NCCS(=O)(=O)Nc1cccnc1)c1ccc2c(-c3ccccc3Cl)nn(-c3ccc(F)cc3)c2c1` [Example 60, 3-(2-chlorophenyl)-1-(4-fluorophenyl)-N-[2-(pyridin-3-ylsulfamoyl)ethyl]-1H-indazole-6-carboxamide]: 16 nM; for `O=C(NC1(CO)CC1)c1ccc2c(-c3ccccc3Cl)nn(-c3ccc(F)cc3)c2c1` [Example 61, 3-(2-chlorophenyl)-1-(4-fluorophenyl)-N-[1-(hydroxymethyl)cyclopropyl]-1H-indazole-6-carboxamide]: 73 nM; for `CCOC(=O)C1(NC(=O)c2ccc3c(-c4ccccc4Cl)nn(-c4ccc(F)cc4)c3c2)CC1` [Example 62, ethyl 1-({[3-(2-chlorophenyl)-1-(4-fluorophenyl)-1H-indazol-6-yl]carbonyl}amino)cyclopropane carboxylate]: 580 nM. `COC(=O)C1(NC(=O)c2ccc3c(-c4ccccc4Cl)nn(-c4ccc(F)cc4)c3c2)CCCC1` [Example 63, methyl 1-({[3-(2-chlorophenyl)-1-(4-fluorophenyl)-1H-indazol-6-yl]carbonyl}amino)cyclopentane-carboxylate]: the IC50 turned out to be 405 nM.

The compound `C[C@@H](CO)NC(=O)c1ccc2c(-c3ccccc3Cl)nn(-c3ccc(F)cc3)c2c1` [Example 68, 3-(2-chlorophenyl)-1-(4-fluorophenyl)-N-[(1S)-2-hydroxy-1-methylethyl]-1H-indazole-6-carboxamide] came in with an IC50 of 310 nM.

`CC(C)[C@@H](CO)NC(=O)c1ccc2c(-c3ccccc3Cl)nn(-c3ccc(F)cc3)c2c1` [Example 69, 3-(2-chlorophenyl)-1-(4-fluorophenyl)-N-[(1S)-1-(hydroxymethyl)-2-methylpropyl]-1H-indazole-6-carboxamide] had a concentration for half-maximal inhibition (IC50) of 8 nM. Against the preceding compound, the IC50 is about 39-fold lower.

In turn, `CC(C)(O)C1(NC(=O)c2ccc3c(-c4ccccc4Cl)nn(-c4ccc(F)cc4)c3c2)CCOCC1` [Example 70, 3-(2-chlorophenyl)-1-(4-fluorophenyl)-N-[4-(1-hydroxy-1-methylethyl)tetrahydro-2H-pyran-4-yl]-1H-indazole-6-carboxamide] had an IC50 of 607 nM.

`O=C(N[C@H]1c2ccccc2OC[C@H]1O)c1ccc2c(-c3ccccc3Cl)nn(-c3ccc(F)cc3)c2c1` [Example 71, 3-(2-chlorophenyl)-1-(4-fluorophenyl)-N-[(3S,4S)-3-hydroxy-3,4-dihydro-2H-chromen-4-yl]-1H-indazole-6-carboxamide] came in with an IC50 of 526 nM.

Compound `C[C@@H]1CC[C@@H](O)[C@H]1NC(=O)c1ccc2c(-c3ccccc3Cl)nn(-c3ccc(F)cc3)c2c1` [Example 72, 3-(2-chlorophenyl)-1-(4-fluorophenyl)-N-[(1S,2R,5R)-2-hydroxy-5-methylcyclopentyl]-1H-indazole-6-carboxamide] returned a 50% inhibitory concentration (IC50) of 22 nM. This IC50 lies about 24-fold lower than the previous one. The same measure for `CCCCC(NC(=O)c1ccc2c(-c3ccccc3Cl)nn(-c3ccc(F)cc3)c2c1)C(O)C(F)(F)F` (centres unmarked) [Example 73, 3-(2-chlorophenyl)-1-(4-fluorophenyl)-N-[1-(2,2,2-trifluoro-1-hydroxyethyl)pentyl]-1H-indazole-6-carboxamide]: 534 nM; for `COC[C@H](NC(=O)c1ccc2c(-c3ccccc3Cl)nn(-c3ccc(F)cc3)c2c1)[C@@H](O)c1ccccc1` [Example 74, 3-(2-chlorophenyl)-1-(4-fluorophenyl)-N-[(1S,2S)-2-hydroxy-1-(methoxymethyl)-2-phenylethyl]-1H-indazole-6-carboxamide]: 16 nM; for `C[C@H](CO)NC(=O)c1ccc2c(-c3ccccc3Cl)nn(-c3ccc(F)cc3)c2c1` [Example 79, 3-(2-chlorophenyl)-1-(4-fluorophenyl)-N-[(1R)-hydroxy-1-methylethyl]-1H-indazole-6-carboxamide]: 772 nM.

`O=C(N[C@@H](CO)[C@@H](O)c1ccccc1)c1ccc2c(-c3ccccc3Cl)nn(-c3ccc(F)cc3)c2c1` [Example 80, 3-(2-chlorophenyl)-1-(4-fluorophenyl)-N-[(1S,2S)-2-hydroxy-1-(hydroxymethyl)-2-phenylethyl]-1H-indazole-6-carboxamide] displayed an IC50 of 127 nM. The result for `CC(NC(=O)c1ccc2c(-c3ccccc3Cl)nn(-c3ccc(F)cc3)c2c1)C(O)C(F)(F)F` (centres unmarked) [Example 81, 3-(2-chlorophenyl)-1-(4-fluorophenyl)-N-(3,3,3-trifluoro-2-hydroxy-1-methylpropyl)-1H-indazole-6-carboxamide] reads 88 nM; that for `O=C(N[C@H](CO)c1ccccc1)c1ccc2c(-c3ccccc3Cl)nn(-c3ccc(F)cc3)c2c1` [Example 82, 3-(2-chlorophenyl)-1-(4-fluorophenyl)-N-[(1S)-2-hydroxy-1-phenylethyl]-1H-indazole-6-carboxamide], 36 nM. On to `O=C(NC1CCCC1)c1ccc2c(-c3ccccc3Cl)nn(-c3ccc(F)cc3)c2c1` [Example 84, 3-(2-chlorophenyl)-N-cyclopentyl-1-(4-fluorophenyl)-1H-indazole-6-carboxamide], for which the midpoint of inhibition, the IC50, lay at 156 nM. Against the preceding compound, the IC50 is about 4.3-fold higher. The same measure for `O=C(NC(CO)(CO)CO)c1ccc2c(-c3ccccc3Cl)nn(-c3ccc(F)cc3)c2c1` [Example 85, 3-(2-chlorophenyl)-1-(4-fluorophenyl)-N-[2-hydroxy-1,1-bis(hydroxymethyl)ethyl]-1H-indazole-6-carboxamide]: 432 nM; for `O=C(NC1CCOCC1)c1ccc2c(-c3ccccc3Cl)nn(-c3ccc(F)cc3)c2c1` [Example 86, 3-(2-chlorophenyl)-1-(4-fluorophenyl)-N-(tetrahydro-2H-pyran-4-yl)-1H-indazole-6-carboxamide]: 505 nM; for `O=C(N[C@@H]1C[C@H](CO)[C@@H](O)[C@H]1O)c1ccc2c(-c3ccccc3Cl)nn(-c3ccc(F)cc3)c2c1` [Example 87, 3-(2-chlorophenyl)-N-[(1R,2S,3R,4R)-2,3-dihydroxy-4-(hydroxymethyl)cyclopentyl]-1-(4-fluorophenyl)-1H-indazole-6-carboxamide]: 198 nM. With `O=C(NC1(CO)CCC1)c1ccc2c(-c3ccccc3Cl)nn(-c3ccc(F)cc3)c2c1` [Example 88, 3-(2-chlorophenyl)-1-(4-fluorophenyl)-N-[1-(hydroxymethyl)cyclobutyl]-1H-indazole-6-carboxamide], the concentration for half-maximal inhibition (IC50) is 15 nM. Compound `CSCC[C@@H](CO)NC(=O)c1ccc2c(-c3ccccc3Cl)nn(-c3ccc(F)cc3)c2c1` [Example 93, 3-(2-chlorophenyl)-1-(4-fluorophenyl)-N-[(1S)-1-(hydroxymethyl)-3-(methylsulfanyl)propyl]-1H-indazole-6-carboxamide] yielded a half-inhibitory concentration (IC50) of 503 nM.
